Test results from patent publication US20240327459A1, “PEPTIDE FRAGMENTS FOR TREATMENT OF DIABETES” (Follicum AB, priority 2018, published 2024).
“Also recorded” adds a separate entry of the source.

Experiments:
INS-1 β-cells = assay: Insulin secretion from INS-1 cells (Examples 4 and 6); assay type: cell-based, rat; details: Example 6, 6 μM peptide, KRB buffer, 60 min, vs unstimulated control cells
Method: To investigate the stimulatory effect of FOL-005 on insulin secretion, INS-1 β-cells were used in the following experiments. Cells were seeded overnight in cRPMI and then washed with PBS before pre-incubation for 60 min at 37° C. in Krebs-Ringer bicarbonate buffer (KRB), pH 7.4, supplemented with 10 mM HEPES, 0.1% bovine serum albumin. After pre-incubation, the buffer was changed and the INS-1 cells were incubated at different test conditions (0 mM, 5 mM or 20 mM glucose) and stimulated with peptide FOL-005 or FOL-015 (SEQ ID NO: 158) or left untreated during 60 min at 37° C. Immediately after incubation, an aliquot of the buffer was removed and frozen for subsequent assay of insulin with an insulin radioimmunoassay kit.
INS-1 β-cells were used to investigate the stimulatory effect of FOL-014 on insulin secretion. Cells were seeded overnight and then washed with PBS before pre-incubation for 60 min at 37° C. in Krebs-Ringer bicarbonate buffer (KRB), pH 7.4, supplemented with 10 mM HEPES, 0.1% bovine serum albumin. After pre-incubation, the buffer was changed and the INS-1 cells were incubated in new KRB buffer supplemented with 10 mM HEPES, 0.1% bovine serum albumin and stimulated with peptide FOL-014 or left untreated during 60 min at 37° C. Immediately after incubation, an aliquot of the buffer was removed and frozen for subsequent assay of insulin.

mouse pancreatic islets = assay: Insulin secretion from isolated mouse pancreatic islets (Examples 5 and 7); assay type: cell-based; details: 60 min
Method: Mouse pancreatic islets were isolated from 8-week old C57BL/6J male mice (Taconic). Mice were sacrificed by an overdose of isoflurane and cervical dislocation. 3 ml of 0.9 U/ml collagenase P was injected into the pancreatic duct to inflate the pancreas. The Pancreas was then removed and collagen digested for 19 min at 37° C. The samples Were vigorously shaken to disrupt the tissue. The digest was transferred into ice cold Hank's Balanced Salt Solution (HBSS) with Ca^2+ and Mg^2+. The suspension was allowed to sit for 10 min to allow the islet to sink, and the islets were washed in fresh HBSS four times. The islets were then hand-picked and sorted according to size. Islets (n=3 per well in a 96 well plate) were pre-incubated in KRB buffer during 10 min 37° C., pH 7.4, supplemented with 10 mM HEPES, 0.1% bovine serum albumin. After pre-incubation, the buffer was changed and islets were incubated at different test conditions in new KRB buffer with 0.1% bovine serum albumin (non-treated ctrl, FOL-005 peptide, or GLP-1) for 60 min at 37° C. Immediately after incubation, an aliquot of the buffer was removed and frozen for subsequent assay of insulin.
Mouse pancreatic islets were isolated from 8-week old C57BL/6J male mice as described under example 5. The islets were then hand-picked and sorted according to size. Islets (n=5 per well in a 96 well plate) were pre-incubated in 200 μl KRB buffer during 10 min 37° C., pH 7.4, supplemented with 10 mM HEPES, 0.1% bovine serum albumin. Following pre-incubation, the buffer was changed and islets were incubated in different test conditions in new KRB buffer with 0.1% bovine serum albumin (non-treated ctrl, FOL-014 peptide, and GLP-1) for 60 min at 37° C. Immediately after incubation, an aliquot of the buffer was removed and frozen for subsequent assay of insulin.

isolated mouse islets = assay: Insulin and glucagon secretion from isolated mouse islets (Example 12); assay type: cell-based
Method: Twelve-week-old male C57/bl6 mice were euthanized with isoflurane and cervical dislocation. After clamping the hepatic ducts, 3 ml of 0.9 U/ml collagenase P was injected into the bile duct to inflate the pancreas. The pancreas was then removed and digested for 19 min at 37° C. The samples were vigorously shaken to disrupt the tissue. The digest was quickly transferred into ice cold Hank's Balanced Salts Solution with Ca^2+ and Mg^2+. The suspension was allowed to sit for 8 min to allow the islet to sink, and the islets were washed in the same manner four times. The islets were then handpicked and sorted according to size.
Freshly isolated islets were seeded in groups of 5 in a 96-well plate and preincubated for 1 h at 37° C. in a Krebs-Ringer bicarbonate buffer (pH 7.4). The islets were incubated for 1 h at 37° C. in Krebs-Ringer buffered solution supplemented with 0.6 or 6 μM FOL-014 or 100 nM GLP-1 or left unsupplemented for control. Immediately after incubation, the medium was removed for assays of insulin and glucagon using Mercodia's ELISA kits. The effect of FOL-014 on insulin (FIGS. 8A and B) and glucagon (FIGS. 8C and D) secretion from isolated mouse islets was measured in the presence of low glucose (2.8 mM; FIGS. 8A and C) or high glucose (16.7 mM; FIGS. 8B and D) concentrations.

BB lyp/lyp rats = assay: Onset of type 1 diabetes in BB lyp/lyp rats; assay type: in vivo, rat; details: 100 nmol/kg subcutaneously 3 times/week from day 40, vs placebo
Method: BB lyp/lyp rats were randomized for placebo (sodium chloride, 9 mg/ml) or FOL-014 treatment 3 times/week from day 40 until onset of type 1 diabetes, defined as plasma glucose levels ≥11.1 mM. The dose of 100 nmol/kg FOL-014 peptide in saline or placebo (saline) was administered subcutaneously and the animals were terminated immediately upon exceeding critical plasma glucose levels. The difference between FOL-014 treated animals and animals receiving placebo treatment was significant both when expressed as average age for onset of type 1 diabetes (FIG. 10A) and when described as percentage of animals developing type 1 diabetes per day (FIG. 10B).

db/db mice = assay: HbA1c in db/db mice after 4 weeks of dosing; assay type: in vivo, mouse; details: 100 nmol/kg subcutaneously, 5 days per week for 4 weeks, vs PBS control
Method: To investigate the long-term effect of FOL-014 and FOL-056 in diabetic mice, db/db mice were dosed with 100 nmol/kg peptide subcutaneously, 5 days per week for 4 weeks. Control mice were injected with PBS. After 4 weeks of treatment the mice were terminated and 25 μl whole blood was immediately frozen for subsequent HbA1c analysis. (FIG. 21).

[1] = low glucose (2.8 mM), FOL-014 0.6 or 6 μM

Q: Which insulin secretion (INS-1 β-cells) does the source give for “KPLAEIDSIELSYGIK (MISC_FEATURE - peptide, FOL-014)” here?
A: secreted more insulin compared to unstimulated control cells

Q: What about the insulin secretion (mouse pancreatic islets; Example 7, 0.6 μM) of the same sequence?
A: did not affect insulin secretion; also recorded: had no effect on insulin secretion

Q: What about the insulin secretion (mouse pancreatic islets; Example 7, 6 μM, vs unstimulated control islets) of the same sequence?
A: secreted more insulin compared to unstimulated control islets

Q: And the insulin secretion (isolated mouse islets; high glucose (16.7 mM), 600 nM)?
A: significantly increased insulin secretion

Q: What about the insulin secretion (isolated mouse islets; high glucose (16.7 mM), 6 μM) of the same sequence?
A: but not 6 μM FOL-014, significantly increased insulin secretion

Q: What about the glucagon secretion (isolated mouse islets; high glucose (16.7 mM), both concentrations (0.6 and 6 μM)) of the same sequence?
A: efficiently reduced glucagon secretion

Q: What about the glucagon secretion (isolated mouse islets; [1]) of the same sequence?
A: reduced glucagon secretion as compared with control and GLP-1

Q: And the insulin secretion (isolated mouse islets; [1])?
A: did not increase insulin secretion

Q: What about the “onset of type 1 diabetes” value (BB lyp/lyp rats) of the same sequence?
A: significantly delayed the onset of type-1 diabetes; also recorded: significant delay in the onset of diabetes

Q: And the HbA1c (db/db mice)?
A: reduce the HbA1c in db/db mice as compared with the untreated control group; also recorded: significantly lower HbA1c
